The target in this assay is T1, glucocorticoid receptor (Homo sapiens, UniProt P04150).
T1 construct: expressed in transfected cells
T1 sequence (P04150 524-758 limits assumed): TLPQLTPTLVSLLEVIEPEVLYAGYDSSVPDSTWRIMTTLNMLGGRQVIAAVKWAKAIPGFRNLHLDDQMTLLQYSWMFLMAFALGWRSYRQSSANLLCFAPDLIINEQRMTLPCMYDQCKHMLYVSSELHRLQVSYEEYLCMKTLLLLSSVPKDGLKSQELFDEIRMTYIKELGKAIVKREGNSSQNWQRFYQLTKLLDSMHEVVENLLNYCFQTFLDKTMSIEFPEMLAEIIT
The experiment in a line: Agonistic mode of action on the glucocorticoid receptor (CHO-Gal4/GR luciferase reporter cell line). The format is cell-based. The settings on record: range class observed in the agonistic assay or the antagonistic assay (CHO-Gal4/GR reporter cells); table does not say which mode applies per example. In outline:
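CHO cells stably carrying GAL4 DBD–GR ligand-binding-domain fusion and GAL4-UAS firefly luciferase reporter, 5000 cells/well grown 24 h, then compounds added in Opti-MEM at 8 half-log concentrations from 10 μM to 0.003 μM (0.5% DMSO), quadruplicates. Agonist-induced luminescence read on FLIPR Tetra; EC50 calculated.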
(In a reporter assay the amount or activity of a reporter protein is the signal.)

As to `CCc1nnc2n1-c1c(cc(F)c(-c3cc(F)cc4c3ccn4CCOC)c1C)NC2(C)C` [Example 36, 1-ethyl-7-fluoro-8-(6-fluoro-1-(2-methoxyethyl)-1H-indol-4-yl)-4,4,9-trimethyl-4,5-dihydro-[1,2,4]triazolo[4,3-a]quinoxaline], the IC50 or EC50 (agonist or antagonist mode not specified) lay in the range of 0.1 to 1 µM. Then `Cc1c(-c2cccc3c2cnn3S(C)(=O)=O)ccc2c1-n1c(C)nnc1C(C)(C)N2` [Example 457, 1,4,4,9-Tetramethyl-8-(1-methylsulfonyl-1H-indazol-4-yl)-5H-[1,2,4]triazolo[4,3-a] quinoxaline], with 0.1 to 1 µM. Then `CCc1c(-c2cc(F)cc3c2ccn3S(C)(=O)=O)c(F)cc2c1-n1c(C)nnc1C(C)(C)N2` [Example 46, 9-Ethyl-7-fluoro-8-(6-fluoro-1-methylsulfonyl-1H-indol-4-yl)-1,4,4-trimethyl-5H-[1,2,4]triazolo[4,3-a]quinoxaline], with less than 0.1 µM; and `Cc1nnc2n1-c1c(cc(F)c(-c3cccc4[nH]ncc34)c1F)NC2(C)C` [Example 232, 7,9-Difluoro-8-(1H-indazol-4-yl)-1,4,4-trimethyl-5H-[1,2,4]triazolo[4,3-a]quinoxaline], with 0.1 to 1 µM. Then `Cc1cc2c(c(F)c1-c1cc(F)cc3c1ccn3C)-n1c(C)nnc1C(C)(C)N2` [Example 520, 9-Fluoro-8-(6-fluoro-1-methyl-1H-indol-4-yl)-1,4,4,7-tetramethyl-5H-[1,2,4]triazolo[4,3-a]quinoxaline], with 0.1 to 1 µM; and `Cc1nnc2n1-c1c(cc(OC(F)F)c(-c3cccc4[nH]ccc34)c1F)NC2(C)C` [Example 297, 7-(Difluoro-methoxy)-9-fluoro-8-(1H-indol-4-yl)-1,4,4-trimethyl-5H-[1,2,4]triazolo[4,3-a]quinoxaline], with 1 to 15 µM.

Compound `Cc1nnc2n1-c1c(cc(OC(F)F)c(-c3cccc4c3ccn4S(C)(=O)=O)c1F)NC2(C)C` [Example 275, 7-(Difluoro-methoxy)-9-fluoro-1,4,4-trimethyl-8-(1-methylsulfonyl-1H-indol-4-yl)-5H-[1,2,4]triazolo[4,3-a]quinoxaline] gave an IC50 or EC50 (agonist or antagonist mode not specified) of 1 to 15 µM. The figure for `COc1cc2c(c(C(F)(F)F)c1-c1cc(F)cc3c(C4CC4)c[nH]c13)-n1c(C)nnc1C(C)(C)N2` [Example 482, 8-(3-Cyclopropyl-5-fluoro-1H-indol-7-yl)-7-methoxy-1,4,4-trimethyl-9-(trifluoromethyl)-5H-[1,2,4]triazolo[4,3-a]quinoxaline] is less than 0.1 µM. The figure for `Cc1cc(-c2c(F)cc3c(c2C(F)(F)F)-n2c(C)nnc2C(C)(C)N3)c2ccn(S(C)(=O)=O)c2c1` [Example 476, 7-Fluoro-1,4,4-trimethyl-8-(6-methyl-1-methylsulfonyl-1H-indol-4-yl)-9-(trifluoromethyl)-5H-[1,2,4]triazolo [4,3-a]quinoxaline] is 0.1 to 1 µM; for `CCS(=O)(=O)n1ccc2c(-c3c(F)cc4c(c3OC)-n3c(C)nnc3C(C)(C)N4)cc(F)cc21` [Example 362, 8-[1-(Ethylsulfonyl)-6-fluoro-1H-indol-4-yl]-7-fluoro-9-methoxy-1,4,4-trimethyl-5H-[1,2,4]triazolo[4,3-a]quinoxaline] it is less than 0.1 µM. The figure for `COCCn1ccc2c(-c3c(C(F)F)cc4c(c3F)-n3c(C)nnc3C(C)(C)N4)cccc21` [Example 295, 7-(Difluoro-methyl)-9-fluoro-8-[1-(2-methoxy-ethyl)-1H-indol-4-yl]-1,4,4-trimethyl-5H-[1,2,4]triazolo[4,3-a]quinoxaline] is 1 to 15 µM. With `COCCn1ccc2c(-c3c(C)cc4c(c3F)-n3c(C)nnc3C(C)(C)N4)cccc21` [Example 337, 9-Fluoro-8-[1-(2-methoxy-ethyl)-1H-indol-4-yl]-1,4,4,7-tetramethyl-5H-[1,2,4]triazolo[4,3-a]quinoxaline], the IC50 or EC50 (agonist or antagonist mode not specified) was in the range of 1 to 15 µM. In turn, `Cc1cc2c(c(C)c1-c1cccc3c(C)c[nH]c13)-n1c(C)nnc1C(C)(C)N2` [Example 356, 1,4,4,7,9-Pentamethyl-8-(3-methyl-1H-indol-7-yl)-5H-[1,2,4]triazolo[4,3-a]quinoxaline] had an IC50 or EC50 (agonist or antagonist mode not specified) of less than 0.1 µM.

As for `Cc1nnc2n1-c1c(cc(F)c(-c3cccc4c3ccn4S(=O)(=O)C3CC3)c1C(F)F)NC2(C)C` [Example 401, 8-[1-(Cyclopropylsulfonyl)-1H-indol-4-yl]-9-(difluoro-methyl)-7-fluoro-1,4,4-trimethyl-5H-[1,2,4]triazolo [4,3-a]quinoxaline], the IC50 or EC50 (agonist or antagonist mode not specified) is 0.1 to 1 µM. Then `CCc1nnc2n1-c1c(cc(F)c(-c3cc(F)cc4c3ccn4CC3CC3)c1C)NC2(C)C` [Example 35, 8-(1-(cyclopropylmethyl)-6-fluoro-1H-indol-4-yl)-1-ethyl-7-fluoro-4,4,9-trimethyl-4,5-dihydro-[1,2,4]triazolo[4,3-a]quinoxaline], with 0.1 to 1 µM. As to `COc1c(-c2cccc3c(C)n[nH]c23)c(F)cc2c1-n1c(C)nnc1C(C)(C)N2` [Example 381, 7-Fluoro-9-methoxy-1,4,4-trimethyl-8-(3-methyl-1H-indazol-7-yl)-5H-[1,2,4]triazolo[4,3-a]quinoxaline], the IC50 or EC50 (agonist or antagonist mode not specified) lay in the range of 1 to 15 µM. Then `Cc1nnc2n1-c1c(cc(F)c(-c3cccc4c3ccn4S(=O)(=O)C3CC3)c1F)NC2(C)C` [Example 205, 8-[1-(Cyclopropylsulfonyl)-1H-indol-4-yl]-7,9-difluoro-1,4,4-trimethyl-5H-[1,2,4]triazolo[4,3-a]quinoxaline], with 0.1 to 1 µM; and `Cc1nnc2n1-c1c(cc(F)c(-c3cccc4cc[nH]c34)c1C(F)(F)F)NC2(C)C` [Example 86, 7-fluoro-8-(1H-indol-7-yl)-1,4,4-trimethyl-9-(trifluoromethyl)-4,5-dihydro-[1,2,4]triazolo[4,3-a]quinoxaline], with 0.1 to 1 µM.

Compound `Cc1c(-c2cccc3c2ccn3S(C)(=O)=O)c(OC(F)(F)F)cc2c1-n1c(C)nnc1C(C)(C)N2` [Example 465, 1,4,4,9-Tetramethyl-8-(1-methylsulfonyl-1H-indol-4-yl)-7-(trifluoromethyloxy)-5H-[1,2,4]triazolo[4,3-a]quinoxaline] yielded an IC50 or EC50 (agonist or antagonist mode not specified) of less than 0.1 µM. The figure for `Cc1c(-c2cccc3c(C)c[nH]c23)c(OC(F)(F)F)cc2c1-n1c(C)nnc1C(C)(C)N2` [Example 405, 1,4,4,9-Tetramethyl-8-(3-methyl-1H-indol-7-yl)-7-(trifluoromethyloxy)-5H-[1,2,4]triazolo[4,3-a]quinoxaline] is 0.1 to 1 µM; for `Cc1nnc2n1-c1c(cc(F)c(-c3cccc4c3ccn4CC(F)F)c1F)NC2(C)C` [Example 253, 8-[1-(2,2-Difluoro-ethyl)-1H-indol-4-yl]-7,9-difluoro-1,4,4-trimethyl-5H-[1,2,4]triazolo[4,3-a]quinoxaline] it is 0.1 to 1 µM; for `Cc1c(-c2cccc3c2ccn3CC(F)F)c(F)cc2c1-n1c(C)nnc1C(C)(C)N2` [Example 330, 8-[1-(2,2-Difluoro-ethyl)-1H-indol-4-yl]-7-fluoro-1,4,4,9-tetramethyl-5H-[1,2,4]triazolo[4,3-a]quinoxaline] it is less than 0.1 µM.

Values taken from patent publication US12110293B2, “Substituted triazolo quinoxaline derivatives” (GRÜNENTHAL GMBH, priority 2018, dated 2024).
